Entries after “also recorded” stand apart in the source; their conditions may differ.
What was measured:
[1] = Cell culture cytotoxicity assay (EZ4U colorimetric test); format: cell-based; conditions: human, HeLa cells
From the text: (§1) Tdp1 inhibitors are intended to be used in therapeutic cocktails to sensitize tumors to the action of anticancer Top1 poisons. […] To assess the toxicity of the compounds, their effect on the survival of the HeLa cell line (human cervical cancer) was studied using the colorimetric test of metabolic activity of cells EZ4U, which reflects the survival of cells in the presence of the studied compounds. The EZ4U assay is based on the ability of living cells to reduce the colorless tetrazolium salt XTT [sodium 3,3′-{1-(phenylamino)-carbonyl-3,4-tetrazolium) -bis(4-methoxy-6-nitro)-benzene sulfonic acid hydrate] to an orange water-soluble formazan product. This method was used to investigate the intrinsic cytotoxicity of promising inhibitors discovered in the course of this work, as well as the toxicity of their combination with Tpc.
(§2) Cytotoxicity of the compounds was examined on human cell lines HeLa using an EZ4U colorimetric test (Biomedica, Vienna, Austria). The HeLa cell line was obtained from the Russian Cell Culture Collection (RCCC) Institute of Cytology RAS, St. Petersburg, Russia. The cells were grown in DMEM/F12 medium (Gibco, Thermo Fisher Scientific, Waltham, MA, USA), with 1x GlutaMAX (Gibco, Thermo Fisher Scientific, Waltham, MA, USA), 50 IU/mL penicillin, 50 μg/mL streptomycin (MP Biomedicals), and in the presence of 10% fetal bovine serum (Biolot, Saint-Petersburg, Russia) in a 5% CO2 atmosphere. Since lipophilic nucleosides are soluble in DMSO, cells were grown in the presence of 1% DMSO in the control wells. After the formation of a 30–50% monolayer, the tested compounds were added to the medium, and the cell culture was monitored for 3 days. The values were normalized to their own control in each case. At least three independent experiments were carried out. The 50% cytotoxic concentration (CC50) was defined as the compound concentration that reduced the cell viability by 50% when compared to the untreated controls. The CC50 value was determined using OriginPro 8.6.0 software (OriginLab, Northampton, MA, USA). The measurements were carried out in three independent experiments.

HeLa cells = test: Effect of compounds on topotecan cytotoxicity (EZ4U test); format: cell-based, human; conditions: compound 10 μM in combination with Tpc
From the text: as §1
As already mentioned, we expected to increase the efficacy and/or reduce the dosage of Tpc with Tdp1 inhibitors. To do this, we studied the effect of nucleoside derivatives on Tpc cytotoxicity. […] We attribute this to the probable presence of protein targets other than Tdp1 in the cell.
as §2

recombinant human Tdp1 = target: T1, recombinant human Tdp1 (Homo sapiens, UniProt Q9NUW8); test: Steady-state kinetics of the Tdp1 reaction, type of inhibition (Vmax, KM); format: biochemical; conditions: dependence of Vmax and KM on inhibitor concentration
T1 construct: made in house
Method: Then, the values of the Vmax and KM parameters were calculated from the kinetic curves obtained. The conclusion about the type of inhibition was made based on the dependence type of the calculated parameters on the concentration of the inhibitor. […] Such inhibitors, supposedly, will be more specific inhibitors of Tdp1, because they will bind to the enzyme only in the presence of the enzyme-substrate complex. […] For this reason, this compound needs additional study of its inhibition mechanism by other methods.
To determine the kinetic parameters: apparent maximum rate of enzymatic reaction (Vmax), Michaelis constant (KM), and possible inhibition mechanism, steady-state kinetic experiments of Tdp1 enzymatic reaction were carried out at […] fixed concentrations of the substrate with various inhibitor concentrations. The standard reaction mixtures (200 μL) contained 56 nM, 96 nM, 163 nM, 277 nM, 470 nM or 800 nM oligonucleotide substrate, testable inhibitor, 1.5 nM recombinant human Tdp1 and reaction buffer components (50 mM Tris-HCl, pH 8.0, 50 mM NaCl, 7 mM β-mercaptoethanol). After the addition of the enzyme, the reaction mixtures were incubated at a constant temperature of 26 °C and measured in a POLARstar OPTIMA fluorimeter, BMG LABTECH, GmbH, to measure fluorescence every 55 s (Ex485/Em520 nm) during the linear phase (data from 0 to 8 minutes). The initial data (kinetic curves) were obtained in three independent experiments and statistically processed in the software OriginPro 8.6.0.

[2] = system: mice ascitic Krebs-2 carcinoma; test: Antitumor effect of topotecan with compounds in vivo, ascitic Krebs-2 carcinoma model; conditions: C57Bl/6 mice; for Tumor mass (ascites weight) and number of tumor cells, combination with Tpc compared to only Tpc: Tpc 1 mg/kg + compound 100 mg/kg i/p once on day 4, 6d p = 0.0018
From the text: The effect of compounds 5f, 6c and 6d on the effectiveness of Tpc was studied in vivo on a mice ascitic Krebs-2 carcinoma model. Krebs-2 carcinoma can be transplanted into mice of various genetic constitutions. […] This model combines the advantages of in vitro and in vivo approaches to study the cytotoxic effects of compounds, since ascites cells grow in the environment of the body (in vivo), and intraperitoneal administration of the drug ensures its direct contact with tumor cells (in vitro), bypassing absorption, delivery to the tumor, possible transformations, etc.
During the experiment, mice were injected intraperitoneally with 2 × 10^6 ascites cells, after that a liquid ascites tumor grew at the site of inoculation.
The effect of drugs on the tumor was assessed at the end of the experiment by the weight of the ascitic tumor (the difference in the weight of the mouse with the tumor and after tumor removal), as well as by the number of tumor cells in the ascites.
Three- to four-month-old male and female C57Bl/6 mice (19–21 g) from the breeding colony of the Institute of Cytology and Genetics, SB RAS, Novosibirsk, Russia, were used in the study. The animals were kept on sawdust in plastic cages of 5–7 mice per cage with free access to ground food (“Laboratorkorm”, Moscow, Russia) and tap water. All procedures with the mice were performed in accordance with the international rules for experiments on animals [European Communities Directive (86/609 EEC)].
The experimental tumor model was transplantable Krebs-2 carcinoma obtained from the cell depository of the Institute of Cytology and Genetics SB RAS (Novosibirsk, Russia) and was maintained in mice as a transplanted tumor. Krebs-2 was obtained from epithelial cells of the abdominal wall of a mouse. Krebs-2 carcinoma is nonspecific in its host requirements and can be grafted into mice with any genetic context. With intraperitoneal inoculation, it forms an ascites form.
The antitumor effect was assessed by the weight of the ascites and by the number of tumor cells in ascites. The weight of Krebs-2 ascites was assessed by the difference in the weight of mice before and after the removal of ascites. The number of tumor cells in ascites was determined using a hemocytometer Goryaev camera. In autopsied mice, the weights of liver, lung, heart, kidneys, and spleen were assessed as well as the tumor and body weights.
The animals were treated once in total dose of Tpc 1 mg/kg and Tdp1 inhibitor (5f, 6c or 6d) 100 mg/kg. We started the treatment on the fourth day after the tumor was inoculated, with the expectation that it had just begun to form. […] The animals were euthanized eight days after the transplantation and the compound effect on mice was evaluated by measuring the tumor weight and number of tumor cells in ascites.

T1 sequence (Q9NUW8 whole entry): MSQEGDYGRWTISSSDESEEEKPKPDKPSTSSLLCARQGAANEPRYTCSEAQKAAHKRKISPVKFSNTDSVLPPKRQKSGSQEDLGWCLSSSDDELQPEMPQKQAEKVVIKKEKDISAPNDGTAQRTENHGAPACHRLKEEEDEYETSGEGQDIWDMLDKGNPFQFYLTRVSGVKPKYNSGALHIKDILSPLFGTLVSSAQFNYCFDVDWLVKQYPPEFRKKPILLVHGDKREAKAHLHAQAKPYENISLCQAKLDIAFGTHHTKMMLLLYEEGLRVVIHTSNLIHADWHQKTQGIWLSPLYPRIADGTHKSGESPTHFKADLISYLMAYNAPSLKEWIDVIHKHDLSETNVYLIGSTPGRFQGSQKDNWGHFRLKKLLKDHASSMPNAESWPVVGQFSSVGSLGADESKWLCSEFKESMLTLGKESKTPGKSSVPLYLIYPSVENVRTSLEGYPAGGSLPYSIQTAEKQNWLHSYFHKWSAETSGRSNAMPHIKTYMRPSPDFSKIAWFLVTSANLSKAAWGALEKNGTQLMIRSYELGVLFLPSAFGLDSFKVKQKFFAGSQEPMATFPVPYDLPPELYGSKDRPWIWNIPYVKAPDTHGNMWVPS

Row | SMILES | CC50 at 3 days [1] [µM] | Enhancement of Tpc Cytotoxicity by 10 μM Compounds (HeLa cells) [Times] | Type of inhibition of Tdp1 (recombinant human Tdp1) | Tumor mass (ascites weight) and number of tumor cells, combination with Tpc compared to only Tpc [2] | Tumor mass (ascites weight) and number of tumor cells, compound alone ([2]; compound 100 mg/kg i/p once on day 4, 100 mg/kg)
1 | O[C@@H]1[C@H](O)[C@@H](COC(c2ccccc2)(c2ccccc2)c2ccccc2)O[C@H]1n1cnc2c(NC(c3ccccc3)(c3ccccc3)c3ccccc3)ncnc21 [compound 5f] | > 100 | 1.7 | uncompetitive type of inhibition | no sensitizing effect; also recorded: did not result in a reliable decrease | 
2 | O=C(OC[C@H]1O[C@@H](n2cnc3c(Cl)nc(Cl)nc32)[C@H](OC(=O)c2ccccc2)[C@@H]1OC(=O)c1ccccc1)c1ccccc1 [compound 6d, 2,6-dichloro-9-(2,3,5-tri-O-benzoyl-β-D-ribofuranosyl)purine] | 33 ± 15 | 4.8 | uncompetitive type of inhibition; also recorded: uncompetitive mechanism | significant decrease; also recorded: synergistic decrease of tumor size | did not affect this parameter; also recorded: did not affect tumor growth
3 | O=C(OC[C@H]1O[C@@H](n2cnc3c(Cl)nc(F)nc32)[C@H](OC(=O)c2ccccc2)[C@@H]1OC(=O)c1ccccc1)c1ccccc1 [compound 6c, 2-Fluoro-6-chloro-9-(2,3,5-tri-O-benzoyl-β-D-ribofuranosyl)purine] | 35 ± 20 | 6.5 | uncompetitive type of inhibition; also recorded: nonlinear dependence | did not obtain the sensitizing effect; also recorded: did not result in a reliable decrease | 

Reference: PMC9822400, “The Lipophilic Purine Nucleoside—Tdp1 Inhibitor—Enhances DNA Damage Induced by Topotecan In Vitro and Potentiates the Antitumor Effect of Topotecan In Vivo” (Molecules, 2022)
